# Reference: patent US8143212B2 (Vicuron Pharmaceuticals Inc., priority 2002, dated 2012)
# Where two headings read alike, the source gives them in different places.
# Experiments:
# [1] = test system: E coli; experiment: MIC, microbiological activity (Table 3); format: cell-based
# [2] = test system: human α-glycoprotein; settings: pH 7.4
# Method: Integrated heat effects, after correction for heats of dilution, were analyzed by non-linear regression using a simple single-site binding model with the standard Microcal ORIGIN software package. Raw data (μcal/sec) for each injection were integrated to give the total heat effect per addition, then divided by amount of injectant to give kcal/mole of injectant. The same integration was applied for control dilution effects, and this was subtracted from the actual titration data. This provided a differential of the binding curve in which the extent of binding is proportional to the total heat liberated (or absorbed). This was then analyzed by non-linear regression methods in terms of various standard binding models. The simplest model assumes simple non-competitive binding equilibrium, and gives three parameters:
# [3] = Pharmacokinetics and safety in subjects with renal impairment / ESRD (VER001-3, -11, -13); settings: for half-life: human, plasma, intravenous
# Method: (§1) The peak concentrations (Cmax) were obtained directly from the observed data. The area under the plasma concentration-time curve (AUC) were calculated using the linear trapezoidal rule.
# (§2) Clinical Study VER001-13 examined subjects with mild and moderate renal impairment and Clinical Study VER001-1 examined subjects with severe renal impairment and subjects with end-stage renal disease (ESRD). Matched control subjects were enrolled in all studies. […] Subjects with ESRD were dependent on dialysis through the course of the study (3 times weekly).
# [4] = human, in vivo
# [5] = in vivo
# Method: Safety was evaluated by the collection and analysis of data on adverse events (AEs), clinical laboratory tests, physical examinations, vital signs, and ECGs.
# [6] = clinical; settings: human, in vivo; for AUC(0-inf): AUC0-inf; for clearance: CL; for Vd: Vss
# Method: as §1, §2
smiles,measurement,setting,value
CN[C@H]1C(=O)N[C@@H]2Cc3ccc(cc3)Oc3cc4cc(c3O[C@@H]3O[C@H](C(=O)O)[C@@H](O)[C@H](O)[C@H]3NC(=O)CCCCCCCCC(C)C)Oc3ccc(cc3Cl)[C@@H](O)[C@@H]3NC(=O)[C@H](NC(=O)[C@@H]4NC(=O)[C@@H](NC2=O)c2cc(cc(O)c2Cl)Oc2cc1ccc2O)c1ccc(O)c(c1)-c1c(O[C@H]2O[C@H](CO)[C@@H](O)[C@H](O)[C@@H]2O)cc(O)cc1[C@@H](C(=O)NCCCN(C)C)NC3=O [Dalbavancin],MIC,[1]; G 16440 E coli iperperm,8 µg/mL
same,MIC,"[1]; L 47 E coli SKF12140, read-out: MIC",> 32 µg/mL
same,Calculated percent Binding,[2]; 1 μM,73.0%
same,Calculated percent Binding,[2]; 10 μM,68.2%
same,Calculated percent Binding,[2]; 100 μM,26.2%
same,Calculated percent Binding,[2]; 165 μM,16.9%
same,Calculated percent Binding,[2]; 250 μM,11.4%
same,Calculated percent Binding,[2]; 500 μM,5.9%
same,half-life,"[3]; 500 mg, t1/2, ESRD Postdialysis (N = 3), VER001-11, single dose 500 mg",14.5 days
same,half-life,"[3]; 500 mg, t1/2, ESRD Predialysis (N = 3), VER001-11, single dose 500 mg",15.7 days
same,half-life,"[3]; 500 mg, t1/2, Normal Renal Function (N = 6), VER001-11, single dose 500 mg",13.9 days
same,half-life,"[3]; 500 mg, t1/2, Severe Renal Impairment (N = 6), VER001-11, single dose 500 mg",18.9 days
same,half-life,"[3]; 1000 mg, t1/2, Mild Renal Impairment (N = 6), VER001-13, single dose 1000 mg",16.2 days
same,half-life,"[3]; 1000 mg, t1/2, Moderate Renal Impairment (N = 6), VER001-13, single dose 1000 mg",18 days
same,half-life,"[3]; 1000 mg, t1/2, Normal Renal Function (N = 9), VER001-13, single dose 1000 mg",17.4 days
same,half-life,"[3]; 1000 mg, t1/2, Severe Renal Impairment (N = 4), VER001-11, single dose 1000 mg",19.5 days
same,half-life,"[3]; 1120 mg, t1/2, Normal Renal Function (N = 3), VER001-2, single dose 1120 mg",6.21 days
same,increase in concentrations vs normal renal function,"[3]; severe renal impairment, through the first week post-dose",≤ 40%
same,"plasma concentration, all patients",[4],greater than 20 mg/l
same,average difference of effect on QTc values,[5]; human,7 ms
same,patients with AEs that led to discontinuation of study drug,[5]; human,3%
same,SAE considered to be related to study drug,[5],no SAE
same,AUC,"[6]; 500 mg, AUC",24400 µg·h/mL
same,AUC,"[6]; 500 mg, AUC0-day7",6080 µg·h/mL
same,AUC,"[6]; 500 mg, AUC0-day14",10400 µg·h/mL
same,AUC(0-inf),[6]; 500 mg,24100 µg·h/mL
same,AUC,"[6]; 500 mg, AUC7",6860 µg·h/mL
same,AUC,"[6]; 500 mg, AUC14",11000 µg·h/mL
same,clearance,[6]; 500 mg,0.37 mL/min
same,Cmax,[6]; 500 mg,137 µg/mL
same,Vd,[6]; 500 mg,13.2 L
same,AUC,"[6]; 1000 mg, AUC",24500 µg·h/mL
same,AUC,"[6]; 1000 mg, AUC0-day7",9710 µg·h/mL
same,AUC,"[6]; 1000 mg, AUC0-day14",15300 µg·h/mL
same,AUC(0-inf),[6]; 1000 mg,27000 µg·h/mL
same,AUC,"[6]; 1000 mg, AUC7",13400 µg·h/mL
same,AUC,"[6]; 1000 mg, AUC 14",~22000 µg·h/mL
same,AUC,"[6]; 1000 mg, AUC14",17700 µg·h/mL
same,AUC,"[6]; 1000 mg, AUC42",23100 µg·h/mL
same,clearance,[6]; 1000 mg,0.627 mL/min
same,Cmax,[6]; 1000 mg,340 µg/mL
same,Vd,[6]; 1000 mg,16.5 L
same,AUC,"[6]; 1120 mg, AUC",25800 µg·h/mL
same,AUC,"[6]; 1120 mg, AUC0-day7",13600 µg·h/mL
same,AUC,"[6]; 1120 mg, AUC0-day14",20200 µg·h/mL
same,AUC(0-inf),[6]; 1120 mg,25800 µg·h/mL
same,AUC,"[6]; 1120 mg, AUC7",13600 µg·h/mL
same,AUC,"[6]; 1120 mg, AUC14",20200 µg·h/mL
same,clearance,[6]; 1120 mg,0.728 mL/min
same,Cmax,[6]; 1120 mg,325 µg/mL
same,Vd,[6]; 1120 mg,8.49 L
